Literature values, collected in EP3878534A1, “EXTRACTION AND BACK-EXTRACTION OF HYDROPHOBIC COMPOUNDS USING DEEP EUTECTIC SOLVENT WITH TUNEABLE HYDROPHOBICITY” (Wageningen Universiteit, priority 2020, dated 2021).

How the values were obtained:
[1] = octanol/water, individual compound

SMILES: CCCCCCCC(=O)O [Octanoic acid]
- Log Poct (Pub Chem) [1]: 3.05

SMILES: CCCCCC(=O)O [Hexanoic acid]
- pKa: 4.88
- Log Poct (Pub Chem) [1]: 1.92

SMILES: CC1CCC(C(C)C)C(O)C1 (racemic) [DL-Menthol, 2-isopropyl-5-methylcyclohexanol]
- Log Poct (Pub Chem) [1]: 3.20
